Experimental data as given in patent US10028992B2, “Methods of treating muscular dystrophy” (BOARD OF REGENTS OF THE NEVADA SYSTEM OF HIGHER EDUCATION …, priority 2012, dated 2018).

Test system: α7 integrin promoter
Experiment: muscle cell-based assay: α7βgal+/− myoblasts/myotubes, LacZ reporter, β-galactosidase cleavage of FDG
Design: species or system mouse; Results in α7+/− β-galactosidase assay: scale not given here
Settings: Myoblasts
Summary of the method: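 Primary α7βgal+/− mouse myoblasts (LacZ knocked into α7 integrin exon 1, promoter retained), differentiated; promoter activity read as β-galactosidase conversion of non-fluorescent FDG to fluorescein. Hits followed by dose-response, western analysis and myostatin counterscreen.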

Compound | Results in α7+/− β-galactosidase assay (0.5 uM) | Results in α7+/− β-galactosidase assay (1 uM) | Results in α7+/− β-galactosidase assay (5 uM) | Results in α7+/− β-galactosidase assay (10 uM) | Results in α7+/− β-galactosidase assay (20 uM) | Results in α7+/− β-galactosidase assay (40 uM)
Cc1nnc(-c2ccc(N3CCOCC3)c([N+](=O)[O-])c2)o1 [drawing 546] | −0.06474 | −0.06237 | −0.05162 | −0.06761 | −0.1275 | −0.08865
Cc1cc(C)cc(OCC(=O)N/N=C/c2ccccn2)c1 [drawing 547] | 0.02525 | 0.04969 | 0.0722 | −0.00591 | 0.8477 | −0.1757
O=C1Nc2ccccc2/C1=C/c1c[nH]c(-c2ccccc2)n1 [drawing 548] | 0.05646 | 0.09843 | 0.2266 | 0.1719 | 0.06424 | 0.08092
O=C(c1ccccc1)N1CCN(S(=O)(=O)c2cccs2)CC1 [drawing 549] | 0.05147 | 0.1507 | 0.1856 | −0.01279 | 0.05474 | 0.09083
COc1ccccc1C(=O)Nc1ccnn1C1CCN(C(=O)c2ccoc2)CC1 [drawing 551] | −0.09644 | −0.04841 | 0.05814 | 0.02292 | 0.01412 | −0.05323
CCOC(=O)c1nnn(-c2nonc2OC)c1-c1ccccc1 [drawing 552] | 0.01584 | 0.107 | 0.07484 | −0.08302 | 0.003125 | −0.1081
CC(C)(C)Nc1nc(-c2ccc3c(c2)CCN3C(=O)C2CC2)cs1 [drawing 553] | 0.1228 | 0.2827 | 0.1111 | −0.01717 | −0.1366 | −0.2135
CCN(C(=O)c1ccc(S(=O)(=O)N(C)C)cc1)C(C)C(=O)Nc1ccc(C)cc1 (stereo not drawn) [drawing 556] | −0.05004 | −0.1349 | −0.02565 | 0.2444 | −0.07832 | −0.2867
COc1cc(NC(=O)OCc2ccccc2)c2ncccc2c1 [drawing 557] | 0.0156 | −0.08284 | 0.01997 | 0.2347 | −0.06526 | −0.1686
Cc1ccc2c(c1)/C(=C/c1ccccc1C)C(=O)N2 [drawing 558] | 0.05088 | −0.09662 | −0.07445 | 0.08015 | −0.3519 | −0.675
O=C(NCCc1ccccc1)C1CCC(=O)N1C1CCCC1 (stereo not drawn) [drawing 559] | −0.1018 | −0.1461 | 0.003015 | 0.245 | 0.1433 | 0.02863
CCCN(C(=O)c1ccc(S(=O)(=O)N2CCCC2)cc1)C1CCS(=O)(=O)C1 (stereo not drawn) [drawing 560] | −0.1431 | −0.1722 | −0.06143 | 0.1978 | 0.07259 | −0.0646
C=CCOc1ccc(C(=O)/C=C2\C(=O)Nc3ccccc32)cc1 [drawing 561] | −0.1092 | −0.1536 | −0.257 | −0.2991 | −0.2121 | −0.7606
CCN(CC(=O)NCc1cccs1)C(=O)COc1ccc(C(N)=O)cc1 [drawing 562] | −0.04485 | −0.05578 | −0.03005 | 0.2509 | −0.05432 | −0.02246
CC(C)Oc1cccc(C(=O)Nc2ccc(CN3CCOCC3)cc2)c1 [drawing 563] | −0.0458 | −0.04183 | 0.01603 | 0.2092 | 0.7886 | −0.0962
Cc1ccc(/C=C2\C(=O)Nc3ccccc32)o1 [drawing 564] | 0.06962 | 0.01537 | −0.08809 | −0.1824 | −0.2196 | −0.6995
O=c1[nH]c(CN2CCCCC2)cc2c1C1(CCCCC1)Cc1ccccc1-2 [drawing 565] | 0.03731 | −0.01272 | −0.01947 | −0.1479 | 0.1068 | −0.1465
COc1ccccc1NS(=O)(=O)c1cc(NC(=O)c2ccc(Cl)nc2)ccc1N1CCCC1 [drawing 566] | 0.1257 | 0.1127 | 0.06786 | 0.0849 | −0.1817 | −0.2311
N#C/C(=C1/C(=O)Nc2ccc(Br)cc21)c1ccccn1 [drawing 567] | 0.2021 | 0.000395 | −0.2923 | −0.4689 | −0.5478 | −0.6637
N#CC1=C2SCN(c3ccccc3)CN2C(=O)CC1c1cccs1 (stereo not drawn) [drawing 568] | −0.02125 | −0.07703 | −0.07651 | −0.05714 | 0.1121 | −0.08344
COc1ccc(C(=O)/C=C2\C(=O)Nc3ccccc32)cc1 [drawing 569] | 0.002308 | −0.1094 | −0.5146 | −0.6859 | −0.703 | −0.8556
O=C(O)c1csc(-c2cccs2)n1 [drawing 570] | 0.0287 | −0.01442 | 0.8119 | −0.08869 | 0.1022 | −0.04959
COc1cccc(C(=O)COc2ccc3ccc(=O)oc3c2)c1 [drawing 571] | 0.09281 | 0.06053 | −0.01266 | 0.02813 | 0.004164 | −0.04457
CCCS(=O)(=O)c1nc(S(=O)(=O)c2ccc(C)cc2)c(N2CCCC2)s1 [drawing 572] | 0.06463 | 0.01847 | −0.2102 | −0.5196 | −0.8221 | −0.878
OC(c1nc2cc(F)ccc2[nH]1)C(O)c1nc2cc(F)ccc2[nH]1 (stereo not drawn) [drawing 573] | 0.08093 | 0.2145 | −0.08597 | −0.1055 | 0.001076 | −0.1048
COc1ccc(OC)c(NC(=O)CN2CCC(NC(=O)c3ccccc3C)CC2)c1 [drawing 574] | 0.0132 | 0.06975 | 0.04855 | −0.0931 | 0.06823 | 0.04785
O=C(CCc1ccccc1)c1nnc(-c2ccccc2)o1 [drawing 575] | 0.0917 | 0.1045 | 0.03485 | −0.04687 | −0.02713 | −0.06265
COc1ccc(/N=N/c2ccc(N)nc2N)cc1 [drawing 576] | 0.2183 | 0.2858 | 0.06976 | 0.01151 | 0.0406 | −0.04372
